BindingDB's records for PubMed 7518514 (Abbott Laboratories, 1994)

Legend:
Protein kinase C = Protein kinase C (Drosophila melanogaster, UniProt P13678)
Apamin = Apamin (Apis mellifera, UniProt P01500)
[1] = molecular target: Sodium-dependent dopamine transporter (Homo sapiens, UniProt Q01959)
[2] = molecular target: 5-hydroxytryptamine receptor 1A/1B/1D/2C (Homo sapiens, UniProt P08908+P28221+P28222+P28335)
[3] = molecular target: Chloride channel protein 1 (Homo sapiens, UniProt P35523)
Substance-K receptor = Substance-K receptor (Bos taurus, UniProt P05363)
[4] = molecular target: Outer capsid protein sigma-1 (Reovirus type 3 (strain Dearing), UniProt P03528)
[5] = molecular target: Beta-2 adrenergic receptor (Mus musculus, UniProt P18762)
Sequence of Beta-2 adrenergic receptor (P18762 whole entry): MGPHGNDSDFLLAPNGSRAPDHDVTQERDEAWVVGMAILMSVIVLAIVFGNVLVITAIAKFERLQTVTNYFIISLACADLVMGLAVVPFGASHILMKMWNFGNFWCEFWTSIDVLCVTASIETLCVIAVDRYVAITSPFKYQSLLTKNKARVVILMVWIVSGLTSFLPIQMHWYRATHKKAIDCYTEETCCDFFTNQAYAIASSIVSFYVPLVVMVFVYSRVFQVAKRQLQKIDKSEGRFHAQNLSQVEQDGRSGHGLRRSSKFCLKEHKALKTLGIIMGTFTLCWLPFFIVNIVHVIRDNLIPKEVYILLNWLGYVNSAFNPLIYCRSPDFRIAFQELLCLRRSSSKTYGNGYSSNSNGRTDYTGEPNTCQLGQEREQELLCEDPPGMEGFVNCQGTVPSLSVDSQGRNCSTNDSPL

D(1A) dopamine receptor = D(1A) dopamine receptor (Homo sapiens, UniProt P21728)
[6] = molecular target: Solute carrier family 22 member 1 (Rattus norvegicus, UniProt Q63089)
Sequence of Solute carrier family 22 member 1 (Q63089 whole entry): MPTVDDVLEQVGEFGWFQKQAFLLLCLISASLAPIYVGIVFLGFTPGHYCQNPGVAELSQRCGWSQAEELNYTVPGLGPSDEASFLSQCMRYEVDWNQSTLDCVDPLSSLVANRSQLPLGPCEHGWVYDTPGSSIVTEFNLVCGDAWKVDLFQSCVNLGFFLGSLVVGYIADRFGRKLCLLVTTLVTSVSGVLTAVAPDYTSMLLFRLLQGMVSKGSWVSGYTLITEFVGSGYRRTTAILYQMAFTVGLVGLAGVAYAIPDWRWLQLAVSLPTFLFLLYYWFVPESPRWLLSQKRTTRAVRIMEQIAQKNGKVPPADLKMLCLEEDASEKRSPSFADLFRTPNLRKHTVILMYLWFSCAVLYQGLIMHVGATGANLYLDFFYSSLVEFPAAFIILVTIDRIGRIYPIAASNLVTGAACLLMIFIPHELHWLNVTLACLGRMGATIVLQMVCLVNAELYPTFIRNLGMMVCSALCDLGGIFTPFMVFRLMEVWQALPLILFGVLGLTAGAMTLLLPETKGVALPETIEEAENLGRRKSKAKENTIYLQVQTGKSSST

[7] = molecular target: Glutamate receptor ionotropic, kainate 2 (Homo sapiens, UniProt Q13002)
[8] = molecular target: Voltage-dependent N-type calcium channel subunit alpha-1B (Rattus norvegicus, UniProt Q02294)
[9] = molecular target: Type-2 angiotensin II receptor (Homo sapiens, UniProt P50052)
Substance-P receptor = Substance-P receptor (Homo sapiens, UniProt P25103)
Sequence of Substance-P receptor (P25103 whole entry): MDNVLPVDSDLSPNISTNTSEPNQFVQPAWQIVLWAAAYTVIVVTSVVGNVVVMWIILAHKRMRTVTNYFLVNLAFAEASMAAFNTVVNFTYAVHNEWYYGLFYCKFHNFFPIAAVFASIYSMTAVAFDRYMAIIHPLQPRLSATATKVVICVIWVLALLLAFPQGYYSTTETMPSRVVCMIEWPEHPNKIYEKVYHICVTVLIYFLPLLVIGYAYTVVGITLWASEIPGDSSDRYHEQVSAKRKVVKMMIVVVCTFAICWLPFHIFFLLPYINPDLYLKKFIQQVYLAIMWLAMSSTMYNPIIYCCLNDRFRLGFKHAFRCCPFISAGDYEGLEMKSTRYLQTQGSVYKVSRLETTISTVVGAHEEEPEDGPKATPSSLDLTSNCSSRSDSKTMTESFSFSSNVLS

Beta-nerve growth factor = Beta-nerve growth factor (Homo sapiens, UniProt P01138)
Sequence of Beta-nerve growth factor (P01138 122-241 limits assumed): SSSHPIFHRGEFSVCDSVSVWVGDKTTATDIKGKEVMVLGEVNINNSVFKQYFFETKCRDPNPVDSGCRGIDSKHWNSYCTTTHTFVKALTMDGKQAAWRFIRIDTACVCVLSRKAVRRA

Adenosine receptor A1 = Adenosine receptor A1 (Homo sapiens, UniProt P30542)
Sequence of Adenosine receptor A1 (P30542 whole entry): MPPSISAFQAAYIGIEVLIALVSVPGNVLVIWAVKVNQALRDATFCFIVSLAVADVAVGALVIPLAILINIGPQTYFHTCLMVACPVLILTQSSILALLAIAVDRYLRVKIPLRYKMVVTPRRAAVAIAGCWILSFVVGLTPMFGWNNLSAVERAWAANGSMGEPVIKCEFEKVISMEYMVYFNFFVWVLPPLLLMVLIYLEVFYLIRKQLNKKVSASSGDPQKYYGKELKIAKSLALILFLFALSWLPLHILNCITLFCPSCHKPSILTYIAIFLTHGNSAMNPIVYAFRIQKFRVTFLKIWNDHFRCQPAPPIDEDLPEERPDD

GLRA1 protein = GLRA1 protein (Homo sapiens, UniProt Q14C71)
[10] = molecular target: 5-hydroxytryptamine receptor 3A (Homo sapiens, UniProt P46098)
Sequence of 5-hydroxytryptamine receptor 3A (P46098 whole entry): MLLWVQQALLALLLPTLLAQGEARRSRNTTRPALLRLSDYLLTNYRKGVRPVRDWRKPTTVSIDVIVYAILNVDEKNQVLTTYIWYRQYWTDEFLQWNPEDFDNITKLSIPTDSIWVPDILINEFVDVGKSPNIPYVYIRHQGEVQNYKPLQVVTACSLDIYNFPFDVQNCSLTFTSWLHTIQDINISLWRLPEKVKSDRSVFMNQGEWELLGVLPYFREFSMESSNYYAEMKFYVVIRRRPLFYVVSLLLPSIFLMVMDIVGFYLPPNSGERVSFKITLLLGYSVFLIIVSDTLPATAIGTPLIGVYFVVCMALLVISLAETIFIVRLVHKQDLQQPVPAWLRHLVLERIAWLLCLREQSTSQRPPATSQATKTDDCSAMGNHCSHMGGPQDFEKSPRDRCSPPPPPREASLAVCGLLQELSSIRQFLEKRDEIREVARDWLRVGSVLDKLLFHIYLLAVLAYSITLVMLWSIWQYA

[11] = molecular target: Muscarinic acetylcholine receptor M1 (Mus musculus, UniProt P12657)
[12] = molecular target: Sodium-dependent noradrenaline transporter (Homo sapiens, UniProt P23975)
VIP peptides = VIP peptides (Homo sapiens, UniProt P01282)
Sequence of VIP peptides (P01282 125-152 limits assumed): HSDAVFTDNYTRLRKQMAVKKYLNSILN

[13] = molecular target: 5-hydroxytryptamine receptor 2A (Sus scrofa, UniProt P50129)
Adenylate cyclase type 9 = Adenylate cyclase type 9 (Homo sapiens, UniProt O60503)
[14] = molecular target: Adrenergic alpha2 receptor (Mesocricetus auratus, UniProt Q60533)
Sequence of Adrenergic alpha2 receptor (Q60533 whole entry): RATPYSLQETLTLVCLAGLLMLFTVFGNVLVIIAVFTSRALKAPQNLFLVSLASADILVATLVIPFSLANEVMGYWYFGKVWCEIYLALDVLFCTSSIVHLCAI

[15] = molecular target: Inositol-tetrakisphosphate 1-kinase (Homo sapiens, UniProt Q13572)
D(2) dopamine receptor = D(2) dopamine receptor (Homo sapiens, UniProt P14416)
Sequence of D(2) dopamine receptor (P14416 whole entry): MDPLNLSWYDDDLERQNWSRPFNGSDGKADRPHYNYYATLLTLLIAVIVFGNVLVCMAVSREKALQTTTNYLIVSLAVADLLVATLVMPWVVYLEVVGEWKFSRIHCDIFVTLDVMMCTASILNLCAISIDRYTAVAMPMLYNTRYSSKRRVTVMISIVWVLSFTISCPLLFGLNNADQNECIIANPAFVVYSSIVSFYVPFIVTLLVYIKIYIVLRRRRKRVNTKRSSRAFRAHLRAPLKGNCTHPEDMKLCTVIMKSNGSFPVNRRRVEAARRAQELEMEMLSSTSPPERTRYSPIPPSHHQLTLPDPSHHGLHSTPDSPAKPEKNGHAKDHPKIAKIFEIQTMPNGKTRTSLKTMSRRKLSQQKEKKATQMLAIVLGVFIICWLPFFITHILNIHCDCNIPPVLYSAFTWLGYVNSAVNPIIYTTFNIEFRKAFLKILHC

Adenosine receptor A2a = Adenosine receptor A2a (Homo sapiens, UniProt P29274)
[16] = molecular target: Gamma-aminobutyric acid receptor subunit alpha-1 (Homo sapiens, UniProt P14867)
[17] = molecular target: Voltage-dependent T-type calcium channel subunit alpha-1H (Homo sapiens, UniProt O95180)
[18] = molecular target: Glutamate receptor ionotropic, NMDA 1 (Rattus norvegicus, UniProt P35439)
Histamine H1 receptor = Histamine H1 receptor (Homo sapiens, UniProt P35367)
Glutamate receptor 3 = Glutamate receptor 3 (Homo sapiens, UniProt P42263)
Sequence of Glutamate receptor 3 (P42263 whole entry): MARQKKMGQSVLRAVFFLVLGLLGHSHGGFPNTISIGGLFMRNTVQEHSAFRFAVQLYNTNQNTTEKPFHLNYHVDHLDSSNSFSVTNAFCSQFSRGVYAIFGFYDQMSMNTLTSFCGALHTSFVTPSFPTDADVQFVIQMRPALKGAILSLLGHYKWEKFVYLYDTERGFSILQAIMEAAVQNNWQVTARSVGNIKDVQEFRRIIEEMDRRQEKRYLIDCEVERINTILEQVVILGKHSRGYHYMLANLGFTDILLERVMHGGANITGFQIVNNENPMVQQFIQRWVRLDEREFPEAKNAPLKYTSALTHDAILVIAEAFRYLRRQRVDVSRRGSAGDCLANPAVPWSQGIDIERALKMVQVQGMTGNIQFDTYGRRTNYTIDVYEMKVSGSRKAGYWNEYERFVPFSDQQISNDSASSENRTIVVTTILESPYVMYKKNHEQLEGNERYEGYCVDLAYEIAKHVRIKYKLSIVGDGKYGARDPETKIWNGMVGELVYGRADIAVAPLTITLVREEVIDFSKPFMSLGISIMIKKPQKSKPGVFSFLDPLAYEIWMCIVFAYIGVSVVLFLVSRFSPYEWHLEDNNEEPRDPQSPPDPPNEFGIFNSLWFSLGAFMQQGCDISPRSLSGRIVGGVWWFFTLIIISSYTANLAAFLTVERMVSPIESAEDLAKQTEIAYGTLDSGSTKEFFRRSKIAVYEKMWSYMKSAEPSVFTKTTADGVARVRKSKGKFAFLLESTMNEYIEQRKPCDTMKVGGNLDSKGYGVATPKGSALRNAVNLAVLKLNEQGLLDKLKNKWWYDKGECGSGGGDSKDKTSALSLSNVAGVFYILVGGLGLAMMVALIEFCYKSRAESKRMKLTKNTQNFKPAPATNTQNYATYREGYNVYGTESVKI

[19] = molecular target: Gamma-aminobutyric acid type B receptor subunit 1 (Homo sapiens, UniProt Q9UBS5)

Measured: Ki

Sequence of Chloride channel protein 1 (P35523 whole entry): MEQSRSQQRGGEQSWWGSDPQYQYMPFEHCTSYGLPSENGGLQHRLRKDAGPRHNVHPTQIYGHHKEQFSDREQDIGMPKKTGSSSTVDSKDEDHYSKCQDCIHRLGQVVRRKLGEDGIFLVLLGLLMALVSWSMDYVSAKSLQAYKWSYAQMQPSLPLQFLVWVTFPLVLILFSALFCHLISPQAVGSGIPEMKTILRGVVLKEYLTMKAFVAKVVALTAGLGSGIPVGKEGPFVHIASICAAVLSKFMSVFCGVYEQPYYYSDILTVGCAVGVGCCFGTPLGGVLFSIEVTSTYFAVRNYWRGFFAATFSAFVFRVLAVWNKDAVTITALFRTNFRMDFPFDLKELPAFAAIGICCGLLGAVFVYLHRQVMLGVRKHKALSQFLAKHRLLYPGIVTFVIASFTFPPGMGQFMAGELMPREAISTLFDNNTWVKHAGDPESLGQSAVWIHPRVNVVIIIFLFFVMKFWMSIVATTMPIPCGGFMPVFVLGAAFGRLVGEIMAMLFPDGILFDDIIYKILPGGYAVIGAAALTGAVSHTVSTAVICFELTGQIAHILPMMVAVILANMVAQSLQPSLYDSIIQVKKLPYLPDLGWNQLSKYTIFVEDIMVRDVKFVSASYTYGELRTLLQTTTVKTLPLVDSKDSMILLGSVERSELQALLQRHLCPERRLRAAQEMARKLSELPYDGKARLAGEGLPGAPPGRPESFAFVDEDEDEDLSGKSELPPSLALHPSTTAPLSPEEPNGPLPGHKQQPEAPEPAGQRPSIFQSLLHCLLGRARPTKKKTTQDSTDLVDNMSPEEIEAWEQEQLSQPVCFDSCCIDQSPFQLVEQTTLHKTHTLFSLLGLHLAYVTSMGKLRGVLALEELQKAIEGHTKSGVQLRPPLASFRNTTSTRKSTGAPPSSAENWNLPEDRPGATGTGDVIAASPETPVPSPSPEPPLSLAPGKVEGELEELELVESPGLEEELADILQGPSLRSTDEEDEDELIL

Cc1cc([C@@H]2CCCN2C)on1 [ABT-418]
> 10 µM: all assays above
